# Assays:
# [1] = tested on: NAc neurons of Pdyn-Cre mice; assay type: cell-based, mouse; conditions: 10 μM JNJ-3792165; in words
# GPR139 [2] = biological target: T1, GPR139 (Homo sapiens, UniProt Q6DWJ6); assay: CalFluxVTN BRET calcium assay, GPR139-transfected HEK293T/17 cells; assay type: cell-based; conditions: in words
# T1 sequence (Q6DWJ6 1-353): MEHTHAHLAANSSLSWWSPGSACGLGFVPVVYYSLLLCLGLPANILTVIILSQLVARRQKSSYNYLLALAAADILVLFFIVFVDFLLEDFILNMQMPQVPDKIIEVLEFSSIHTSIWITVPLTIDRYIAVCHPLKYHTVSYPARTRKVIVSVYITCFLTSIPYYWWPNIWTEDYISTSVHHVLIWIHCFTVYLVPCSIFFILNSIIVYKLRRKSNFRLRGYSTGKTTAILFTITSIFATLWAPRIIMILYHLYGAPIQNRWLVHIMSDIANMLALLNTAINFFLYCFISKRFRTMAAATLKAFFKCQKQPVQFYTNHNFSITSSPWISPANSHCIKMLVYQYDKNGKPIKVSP
# MHb neurons [3] = assay: Live calcium imaging; assay type: cell-based, mouse; conditions: in words
# [4] = tested on: GPR139-SmBit / β-arrestin1; assay: NanoBiT β-arrestin1 recruitment assay; assay type: cell-based, human
# [5] = tested on: GPR139-SmBit / β-arrestin2; assay: NanoBiT β-arrestin2 recruitment assay; assay type: cell-based, human
# MHb neurons [6] = assay type: cell-based, mouse
# GPR139 / Gα11 = assay: G protein BRET assay, Gα11 activation; assay type: cell-based, human; conditions: in words; for GPR139 coupling activity with Gα11: 10 µM
# GPR139 [7] = biological target: T1, GPR139; assay type: binding; conditions: in words
# GPR139 / GαoA = assay: G protein BRET assay, GαoA activation; assay type: cell-based, human; conditions: 10 µM; in words
# HiBit-GPR139 = assay: HiBiT-GPR139 surface abundance / internalization assay, HEK293T/17 cells; conditions: 40 μM Dyngo-4a, 10 μM PitStop 2, 4 mM MβCD applied 15 min before; 40 μM Dyn A13; in words
molecule,measurement,setting,value
Cc1cccc(NC(=O)c2cc(C)n(Cc3c(Cl)cccc3Cl)n2)c1 [JNJ-3792165],effect on jGCaMP7s response to optogenetic stimulation,[1],completely abolished
same,effect of antagonist on peptide-induced Ca2+ responses,GPR139 [2]; 10 μM JNJ-3792165,blocked
same,effect on Dyn A17-induced Ca2+ response,MHb neurons [3],completely blocked
C[C@H](NC(=O)CNC(=O)c1cccc(Cl)c1)c1ccccc1 [JNJ-63533054],β-arrestin 1 recruitment to GPR139,[4],did not observe recruitment of β-arrestins
same,β-arrestin 2 recruitment to GPR139,[5],did not observe recruitment of β-arrestins
C=CCN1CC[C@]23c4c5ccc(O)c4O[C@H]2C(=O)CC[C@@]3(O)[C@H]1C5 [naloxone],effect on Dyn A17 inhibition of neuronal firing,MHb neurons [6],blocked
same,block of G protein activation by GPR139,"GPR139 / Gα11; 100 µM Naloxone, 5 µM Dyn A17",did not block G protein activation by GPR139
L-enk: inactive Leu-enkephalin as a negative control,competition with [3H]-JNJ-63533054 binding,GPR139 [7],no competition
same,GPR139 coupling activity with GαoA,GPR139 / GαoA,Neither did we observe G protein activation
same,GPR139 coupling activity with Gα11,GPR139 / Gα11,Neither did we observe G protein activation
"adrenocorticotropic hormone (SYSMEHFRWGKPVGKKRRPVKVYPNGAEDESAEAFPLEF; Corticotropin; UniProt P01189 138-176, looked up) [ACTH]",CalFluxVTN signal compared to control cells not expressing GPR139,"GPR139 [2]; 10 μM, 3 independent experiments",significant signals
same,competition with [3H]-JNJ-63533054 binding,GPR139 [7],only modest binding
same,GPR139 coupling activity with GαoA,GPR139 / GαoA,did not show any significant coupling activity
same,GPR139 coupling activity with Gα11,GPR139 / Gα11,did not show any significant coupling activity
methyl-beta-cyclodextrin [MβCD],effect on Dyn A13-mediated GPR139 internalization,HiBit-GPR139,had no effect
α-MSH,GPR139 coupling activity with GαoA,GPR139 / GαoA,did not show any significant coupling activity
same,GPR139 coupling activity with Gα11,GPR139 / Gα11,did not show any significant coupling activity
